Values quoted from earlier work, collected in patent publication US20020045168A1, “Computer based modeling system” (priority 2000, published 2002).

Tests used:
Settings in all cases: experimental, native ligand
AMP aptamer (1am0) = test system: AMP aptamer (1am0)
Arg aptamer (1koc) = test system: Arg aptamer (1koc)
citruline aptamer (1kod) = test system: citruline aptamer (1kod)
FMN aptamer (1fmn) = test system: FMN aptamer (1fmn)
[1] = test system: tobramycin aptamer (2tob)

In the case of `Nc1ncnc2c1ncn2[C@@H]1O[C@H](COP(=O)(O)O)[C@@H](O)[C@H]1O` [AMP, adenosine monophosphate], the “Exptl ΔGbind” value (AMP aptamer (1am0)) is listed as −28.5 kJmol^−1.
For `N=C(N)NCCC[C@H](N)C(=O)O` [Arginine, arginine], the “Exptl ΔGbind” value (Arg aptamer (1koc)) is given as −28.5 kJmol^−1.
For `NC(=O)NCCC[C@H](N)C(=O)O` [Citruline, citruline], the “Exptl ΔGbind” value (citruline aptamer (1kod)) is given as −28.5 kJmol^−1.
For `Cc1cc2nc3c(=O)[nH]c(=O)nc-3n(C[C@H](O)[C@H](O)[C@H](O)COP(=O)(O)O)c2cc1C` [Fmn, flavin mononucleotide], the “Exptl ΔGbind” value (FMN aptamer (1fmn)) is listed as −30.1 kJmol^−1.
For `NC[C@H]1O[C@H](O[C@H]2[C@H](O)[C@@H](O[C@H]3O[C@H](CO)[C@@H](O)[C@H](N)[C@H]3O)[C@H](N)C[C@@H]2N)[C@H](N)C[C@@H]1O` [Tobramycin, tobramycin], the “Exptl ΔGbind” value [1] is listed as −45.2 kJmol^−1.
